Usually pIC50 stands for the negative decadic logarithm of the IC50, by convention in mol/L.

Each structure is given as a SMILES string. pIC50: −log10 of the molar value. Starred links: 1 amine or outer side, 2 acyl side, 3 side chain; linkers in the order of their positions; H or OH if unused. Positions of bridges follow the written chain, without caps; N, C: chain ends. Non-standard residues stand in square brackets, D forms with d. Residues, ends and D or L forms follow the SMILES beside them. Groups on a side chain read outwards from the residue. ξ: configuration not given here. *: point of attachment. Trp(βS-Me) = C[C@@H](c1c[nH]c2ccccc12)[C@H](N)C(=O)O; 2Furoyl(5-aminomethyl) = O=C(c1ccc(CN[*:1])o1)[*:2]; Phe(4-guanidino) = N=C(N)Nc1ccc(C[C@H](N)C(=O)O)cc1; Ala(imidazol-2-yl) = N[C@@H](Cc1ncc[nH]1)C(=O)O; Arg(NO2) = N=C(NCCC[C@H](N)C(=O)O)N[N+](=O)[O-]; Phe(4-COOH) = N[C@@H](Cc1ccc(C(=O)O)cc1)C(=O)O; Trp(5-F) = N[C@@H](Cc1c[nH]c2ccc(F)cc12)C(=O)O; Phe(4-CH2NH2) = NCc1ccc(C[C@H](N)C(=O)O)cc1; X33 = CC(C)C(N[*:1])c1ncc(C(=O)[*:2])[nH]1; X4 = O=C(CCSCc1cccc(CSCCN[*:1])c1)[*:2]; γGlu = O=C(O)[C@H](CCC(=O)[*:2])N[*:1]; mXylylene = c1cc(C[*:1])cc(C[*:2])c1; AEF = NCCOc1ccc(C[C@H](N)C(=O)O)cc1; X48 = CC(N[*:1])c1ncc(C(=O)[*:2])s1; Adipoyl = O=C(CCCCC(=O)[*:2])[*:1]; Palmitoyl = CCCCCCCCCCCCCCCC(=O)*; X6 = O=C(Cc1ccc(CN[*:2])cc1)[*:1]; ξAla(CF3) = NC(CC(F)(F)F)C(=O)O; Aad = N[C@@H](CCCC(=O)O)C(=O)O; Aoc(2) = CCCCCC[C@H](N)C(=O)O; Suc = O=C(CCC(=O)[*:2])[*:1]; αMeP = C[C@@]1(C(=O)O)CCCN1; Dab = NCC[C@H](N)C(=O)O; Dap = NC[C@H](N)C(=O)O; AEEA = NCCOCCOCC(=O)O; GABA = NCCCC(=O)O; Mpa = O=C(O)CCS

In the first test the target is PCSK9 (Homo sapiens (Human), UniProt Q8NBP7). The test can be described thus: PCSK9 Alexa FRET Standard assay (displacement of AlexaFluor647 tagged cyclic peptide Reagent A). It is filed as binding. The conditions noted are these: IC50. An outline of the steps: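 TR-FRET displacement: 0.5 nM biotinylated PCSK9 with 1.25 nM Strep-Eu and 20 nM AlexaFluor-tagged cyclic peptide (final) in 50 mM HEPES pH 7.4, 0.15 M NaCl, 5 mM CaCl2, 0.01% BSA, 0.01% P20, ≥2 h at room temperature. IC50 from sigmoidal fit, converted to Ki via peptide KD; falling Eu counts flagged false positives.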
Sequence of PCSK9 (Q8NBP7 153-692): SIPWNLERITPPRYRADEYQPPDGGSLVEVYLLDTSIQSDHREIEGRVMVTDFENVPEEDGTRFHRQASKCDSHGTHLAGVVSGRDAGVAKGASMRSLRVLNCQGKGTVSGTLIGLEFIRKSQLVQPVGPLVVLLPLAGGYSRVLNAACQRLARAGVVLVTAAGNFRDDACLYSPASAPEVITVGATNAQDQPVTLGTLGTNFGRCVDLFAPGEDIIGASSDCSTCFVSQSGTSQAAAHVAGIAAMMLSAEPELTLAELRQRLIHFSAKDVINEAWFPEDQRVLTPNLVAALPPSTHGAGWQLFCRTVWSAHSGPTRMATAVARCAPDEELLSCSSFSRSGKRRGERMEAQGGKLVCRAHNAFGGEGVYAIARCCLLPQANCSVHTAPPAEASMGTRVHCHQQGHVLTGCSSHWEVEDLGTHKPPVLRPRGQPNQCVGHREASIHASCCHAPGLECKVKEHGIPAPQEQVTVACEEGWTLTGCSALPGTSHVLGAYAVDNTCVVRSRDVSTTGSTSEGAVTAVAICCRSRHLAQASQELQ
`COc1ccc(C[C@@H]2NC(=O)[C@H](Cc3ncc[nH]3)NC(=O)[C@H](CC(=O)O)NC(=O)[C@H](Cc3c[nH]c4ccc(F)cc34)NC(=O)[C@H](Cc3c[nH]c4ccc(F)cc34)NC(=O)[C@@H](C)NC(=O)[C@H](CCC/N=C(\N)N[N+](=O)[O-])NC(=O)CCSCc3cccc(c3)CSCCNC(=O)[C@]3(C)CCCN3C2=O)cc1` [Compound 445] (cyclo([Arg(NO2)][dA][Trp(5-F)][Trp(5-F)]D[Ala(imidazol-2-yl)]Y(Me)[αMeP][X4])) showed a pIC50 of 4.30 to 4.68.

Staying with this test, now noted: PCSK9 Alexa FRET Standard assay, 0.5 nM PCSK9, 20 nM AF cyclic peptide Reagent A; read-out: IC50.
Consider `C[C@H]1NC(=O)[C@H](CCCCN)NC(=O)CCSCc2cccc(c2)CSC[C@@H](C(N)=O)NC(=O)[C@]2(C)CCCN2C(=O)[C@H](Cc2ccc(O)cc2)NC(=O)C2=CC=C(CNC(=O)[C@H](Cc3c[nH]c4ccc(F)cc34)NC(=O)[C@H](Cc3c[nH]c4ccc(F)cc34)NC1=O)O2` [Compound 429] ([Mpa]K[dA][Trp(5-F)][Trp(5-F)][2Furoyl(5-aminomethyl)]Y[αMeP]C-NH2; linker 1-9 via mXylylene), for which the negative logarithm of the IC50 (pIC50) is 6.00 to 7.00.
With `C[C@@H](c1c[nH]c2ccccc12)[C@@H]1NC(=O)CNC(=O)[C@H](CCCCN)NC(=O)CCSCc2cccc(c2)CSC[C@@H](C(N)=O)NC(=O)[C@]2(C)CCCN2C(=O)[C@H](Cc2ccc(O)cc2)NC(=O)[C@H](Cc2cnc[nH]2)NC(=O)[C@H](CC(=O)O)NC(=O)[C@H](Cc2c[nH]c3ccc(F)cc23)NC1=O` [Compound 430] ([Mpa]KG[Trp(βS-Me)][Trp(5-F)]DHY[αMeP]C-NH2; linker 1-10 via mXylylene), the negative logarithm of the IC50 (pIC50) was 4.92 to 6.00.
For the compound `CC(=O)N[C@H]1CCCC/C=C/CO[C@H]2C[C@@H](C(N)=O)N(C2)C(=O)[C@H](Cc2ccc(O)cc2)NC(=O)[C@H](Cc2cnc[nH]2)NC(=O)[C@H](CC(=O)O)NC(=O)[C@H](Cc2c[nH]c3ccc(F)cc23)NC(=O)[C@H](Cc2c[nH]c3ccc(F)cc23)NC(=O)CNC(=O)[C@H](CCCCN)NC1=O` [Compound 431], the pIC50 is 7.00 to 9.96.
Same read-out and setting: then `COc1ccc(C[C@@H]2NC(=O)[C@H](Cc3cnc[nH]3)NC(=O)[C@H](CC(=O)O)NC(=O)[C@H](Cc3c[nH]c4ccc(F)cc34)NC(=O)[C@H](Cc3c[nH]c4ccc(F)cc34)NC(=O)[C@@H](C)NC(=O)CCCNC(=O)c3ccc(cc3)C[C@@H](C(N)=O)NC(=O)[C@]3(C)CCCN3C2=O)cc1` [Compound 432] ([GABA][dA][Trp(5-F)][Trp(5-F)]DHY(Me)[αMeP][Phe(4-COOH)]-NH2; lactam N-9), with 4.92 to 6.00.
With `COc1ccc(C[C@@H]2NC(=O)[C@H](Cc3cnc[nH]3)NC(=O)[C@H](CC(=O)O)NC(=O)[C@H](Cc3c[nH]c4ccc(F)cc34)NC(=O)[C@H](Cc3c[nH]c4ccc(F)cc34)NC(=O)[C@@H](C)NC(=O)[C@H](NC(C)=O)CCCCNC(=O)Cc3ccc(cc3)CNC(=O)CCC[C@@H](C(N)=O)NC(=O)[C@]3(C)CCCN3C2=O)cc1` [Compound 433] (Ac-[dK][dA][Trp(5-F)][Trp(5-F)]DHY(Me)[αMeP][Aad]-NH2; linker 1-9 via X6), the pIC50 was 6.00 to 7.00.
On the same count and under the same terms, the same measure for `CC1NC(=O)CCSCc2cccc(c2)CSC[C@@H](C(N)=O)NC(=O)[C@]2(C)CCCN2C(=O)[C@H](Cc2ccc(O)cc2)NC(=O)[C@H](Cc2cnc[nH]2)NC(=O)[C@H](CC(=O)O)NC(=O)[C@H](Cc2c[nH]c3ccc(F)cc23)NC(=O)[C@H](Cc2c[nH]c3ccc(F)cc23)NC(=O)C2=CN=C1S2` (stereo partly shown) [Compound 434] ([Mpa][X48][Trp(5-F)][Trp(5-F)]DHY[αMeP]C-NH2; linker 1-9 via mXylylene): 4.30 to 4.68; for `COc1ccc(C[C@@H]2NC(=O)[C@H](Cc3cnc[nH]3)NC(=O)[C@H](CC(=O)O)NC(=O)[C@H](Cc3c[nH]c4ccc(F)cc34)NC(=O)[C@H](Cc3c[nH]c4ccc(F)cc34)NC(=O)[C@@H](C)NC(=O)CCC(=O)NCCOc3ccc(cc3)C[C@@H](C(N)=O)NC(=O)[C@]3(C)CCCN3C2=O)cc1` [Compound 436] ([dA][Trp(5-F)][Trp(5-F)]DHY(Me)[αMeP][AEF]-NH2; linker N-8 via Suc): 4.30 to 4.68.
The same measure, in the same setting: the same measure for `NC(=O)[C@@H]1Cc2ccc(cc2)CNC(=O)CCCCC(=O)NCC(=O)N[C@@H](Cc2c[nH]c3ccc(F)cc23)C(=O)N[C@@H](Cc2c[nH]c3ccc(F)cc23)C(=O)N[C@@H](CC(=O)O)C(=O)N[C@@H](Cc2cnc[nH]2)C(=O)N[C@@H](Cc2ccc(O)cc2)C(=O)N1` [Compound 438] (G[Trp(5-F)][Trp(5-F)]DHY[Phe(4-CH2NH2)]-NH2; linker N-7 via Adipoyl): 4.30 to 4.68; for `CCCCCCCCCCCCCCCC(=O)N[C@@H](CCC(=O)NCCOCCOCC(=O)NCCOCCOCC(=O)NCC[C@H](NC(=O)CNC(=O)CNC(=O)[C@@H]1CSCc2cccc(c2)CSCCC(=O)N[C@@H](CCCCN)C(=O)N[C@H](C)C(=O)N[C@@H](Cc2c[nH]c3ccc(F)cc23)C(=O)N[C@@H](Cc2c[nH]c3ccc(F)cc23)C(=O)N[C@@H](CC(=O)O)C(=O)N[C@@H](Cc2cnc[nH]2)C(=O)N[C@@H](Cc2ccc(O)cc2)C(=O)N2CCC[C@@]2(C)C(=O)N1)C(N)=O)C(=O)O` [Compound 439] ([Mpa]K[dA][Trp(5-F)][Trp(5-F)]DHY[αMeP]CGG[Dab]([AEEA-AEEA-γGlu-Palmitoyl])-NH2; linker 1-10 via mXylylene): 4.30 to 4.68.
Consider `COc1ccc(C[C@@H]2NC(=O)[C@H](Cc3ncc[nH]3)NC(=O)[C@H](CC(=O)O)NC(=O)[C@H](Cc3c[nH]c4ccc(F)cc34)NC(=O)[C@H](Cc3c[nH]c4ccc(F)cc34)NC(=O)[C@@H](C)NC(=O)[C@H](Cc3ccc(N=C(N)N)cc3)NC(=O)CCSCc3cccc(c3)CSCCNC(=O)[C@]3(C)CCCN3C2=O)cc1` [Compound 441] (cyclo(D[Ala(imidazol-2-yl)]Y(Me)[αMeP][X4][Phe(4-guanidino)][dA][Trp(5-F)][Trp(5-F)])), for which the pIC50 is 4.30 to 4.68.
In the case of `CCCCCC[C@@H]1NC(=O)CCSCc2cccc(c2)CSCCNC(=O)[C@]2(C)CCCN2C(=O)[C@H](Cc2ccc(OC)cc2)NC(=O)[C@H](Cc2ncc[nH]2)NC(=O)[C@H](CC(=O)O)NC(=O)[C@H](Cc2c[nH]c3ccc(F)cc23)NC(=O)[C@H](Cc2c[nH]c3ccc(F)cc23)NC(=O)[C@@H](C)NC1=O` [Compound 442] (cyclo([Aoc(2)][dA][Trp(5-F)][Trp(5-F)]D[Ala(imidazol-2-yl)]Y(Me)[αMeP][X4])), the pIC50 was 7.00 to 9.96.
As to `COc1ccc(C[C@@H]2NC(=O)[C@H](Cc3ncc[nH]3)NC(=O)[C@H](CC(=O)O)NC(=O)[C@H](Cc3c[nH]c4ccc(F)cc34)NC(=O)[C@H](Cc3c[nH]c4ccc(F)cc34)NC(=O)[C@@H](C)NC(=O)C(CC(F)(F)F)NC(=O)CCSCc3cccc(c3)CSCCNC(=O)[C@]3(C)CCCN3C2=O)cc1` (stereo partly shown) [Compound 443] (cyclo(D[Ala(imidazol-2-yl)]Y(Me)[αMeP][X4][ξAla(CF3)][dA][Trp(5-F)][Trp(5-F)])), the pIC50 is 4.30 to 4.68.
The same measure, in the same setting: the same measure for `COc1ccc(C[C@@H]2NC(=O)[C@H](Cc3ncc[nH]3)NC(=O)[C@H](CC(=O)O)NC(=O)[C@H](Cc3c[nH]c4ccc(F)cc34)NC(=O)[C@H](Cc3c[nH]c4ccc(F)cc34)NC(=O)[C@@H](C)NC(=O)C(CC(F)(F)F)NC(=O)CCSCc3cccc(c3)CSCCNC(=O)[C@]3(C)CCCN3C2=O)cc1` (stereo partly shown) [Compound 444] (cyclo(D[Ala(imidazol-2-yl)]Y(Me)[αMeP][X4][ξAla(CF3)][dA][Trp(5-F)][Trp(5-F)])): 4.30 to 4.68; for `COc1ccc(C[C@@H]2NC(=O)[C@H](Cc3ncc[nH]3)NC(=O)[C@H](CC(=O)O)NC(=O)[C@H](Cc3c[nH]c4ccc(F)cc34)NC(=O)[C@H](Cc3c[nH]c4ccc(F)cc34)NC(=O)[C@@H](C)NC(=O)[C@H](CCC(N)=O)NC(=O)CCSCc3cccc(c3)CSCCNC(=O)[C@]3(C)CCCN3C2=O)cc1` [Compound 446] (cyclo(D[Ala(imidazol-2-yl)]Y(Me)[αMeP][X4]Q[dA][Trp(5-F)][Trp(5-F)])): 4.92 to 6.00; for `COc1ccc(C[C@@H]2NC(=O)[C@H](Cc3ncc[nH]3)NC(=O)[C@H](CC(=O)O)NC(=O)[C@H](Cc3c[nH]c4ccc(F)cc34)NC(=O)[C@H](Cc3c[nH]c4ccc(F)cc34)NC(=O)[C@@H](C)NC(=O)[C@H](CNC(=O)COCCOCCN)NC(=O)CCSCc3cccc(c3)CSCCNC(=O)[C@]3(C)CCCN3C2=O)cc1` [Compound 447] (cyclo(D[Ala(imidazol-2-yl)]Y(Me)[αMeP][X4][Dap](AEEA)[dA][Trp(5-F)][Trp(5-F)])): 6.00 to 7.00.
The same measure, in the same setting: the same measure for `COc1ccc(C[C@@H]2NC(=O)[C@H](Cc3ncc[nH]3)NC(=O)[C@H](CC(=O)O)NC(=O)[C@H](Cc3c[nH]c4ccc(F)cc34)NC(=O)[C@H](Cc3c[nH]c4ccc(F)cc34)NC(=O)[C@@H](C)NC(=O)[C@H](CNC(=O)COCCOCCN)NC(=O)CCSCc3cccc(c3)CSCCNC(=O)[C@]3(C)CCCN3C2=O)cc1` [Compound 448] (cyclo(D[Ala(imidazol-2-yl)]Y(Me)[αMeP][X4][Dap](AEEA)[dA][Trp(5-F)][Trp(5-F)])): 7.00 to 9.96; for `CC(C)C1NC(=O)CCSCc2cccc(c2)CSC[C@@H](C(N)=O)NC(=O)[C@]2(C)CCCN2C(=O)[C@H](Cc2ccc(O)cc2)NC(=O)[C@H](Cc2c[nH]cn2)NC(=O)[C@H](CC(=O)O)NC(=O)[C@H](Cc2c[nH]c3ccc(F)cc23)NC(=O)[C@H](Cc2c[nH]c3ccc(F)cc23)NC(=O)c2cnc1[nH]2` (stereo partly shown) [Compound 449] ([Mpa][X33][Trp(5-F)][Trp(5-F)]DHY[αMeP]C-NH2; linker 1-9 via mXylylene): 6.00 to 7.00; for `CC(C)C1NC(=O)CCSCc2cccc(c2)CSC[C@@H](C(N)=O)NC(=O)[C@]2(C)CCCN2C(=O)[C@H](Cc2ccc(O)cc2)NC(=O)[C@H](Cc2c[nH]cn2)NC(=O)[C@H](CC(=O)O)NC(=O)[C@H](Cc2c[nH]c3ccc(F)cc23)NC(=O)[C@H](Cc2c[nH]c3ccc(F)cc23)NC(=O)c2cnc1[nH]2` (stereo partly shown) [Compound 450] ([Mpa][X33][Trp(5-F)][Trp(5-F)]DHY[αMeP]C-NH2; linker 1-9 via mXylylene): 6.00 to 7.00.
